Here are results for 25 compounds from patent US12370192B2, “Azole-fused pyridazin-3(2H)-one derivatives” (TAKEDA PHARMACEUTICAL COMPANY LIMITED, priority 2019, dated 2025).

In experiment [1] the target is T1, human GPR139 receptor (Homo sapiens, UniProt Q6DWJ6).
T1 construct: expressed in transfected cells; host or cells: T-REx-CHO (Thermo Fisher Scientific), doxycycline-induced
T1 sequence (Q6DWJ6 1-353): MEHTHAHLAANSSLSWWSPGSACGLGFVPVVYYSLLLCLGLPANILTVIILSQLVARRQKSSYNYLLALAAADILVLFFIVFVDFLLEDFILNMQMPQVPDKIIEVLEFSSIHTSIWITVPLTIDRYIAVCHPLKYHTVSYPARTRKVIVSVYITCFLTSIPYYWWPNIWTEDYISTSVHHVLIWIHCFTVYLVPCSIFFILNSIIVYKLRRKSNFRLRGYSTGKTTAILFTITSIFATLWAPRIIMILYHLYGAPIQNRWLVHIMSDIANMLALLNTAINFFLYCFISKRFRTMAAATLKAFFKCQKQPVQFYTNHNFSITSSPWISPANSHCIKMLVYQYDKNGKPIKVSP
As to the kind of experiment: GPR139 Competition Binding (membrane-based, tritium-labeled ligand). The conditions noted are these: T-REx-CHO membranes with human GPR139; 6.5 nM tritium-labeled ligand; 11-point curve, 30 μM maximum concentration; read-out: GPR139 Binding Affinity (pKi) (converted). In outline:
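Membranes came from doxycycline-induced T-REx-CHO cells expressing human GPR139. They were incubated 20 min at room temperature with 6.5 nM tritiated ligand and compound (11 points, top 30 μM) in HEPES pH 7.3 buffer with MgCl2/CaCl2. Filter-bound counts gave Ki by four-parameter fit, reported as pKi.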

Experiment [2] addresses T1, human GPR139 receptor. As to the kind of experiment: Measurement of GPR139 Activation Via Calcium Signaling (FLIPR, T-REx-CHO cells). The experiment is classed as cell-based. The note with it: T-REx-CHO cells stably expressing human GPR139, 11-point dose response, 10 μM maximum concentration, read-out: GPR139 Potency (pEC50) (converted). The procedure, abridged:
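T-REx-CHO cells stably carrying human GPR139 under tetracycline control, induced with 2 μg/mL doxycycline for 17 h at 37 °C, loaded 40 min with Calcium 5 dye plus probenecid in HBSS/HEPES pH 7.4. Agonist added as 11-point series (10 μM top); fluorescence read 1 min; pEC50 from four-parameter fit.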

In the case of `CC(C)c1nn(C)c2cnn(CC(=O)N[C@@H](C)c3ccc(C(F)(F)F)cc3)c(=O)c12` [Example 52, (S)-2-(3-isopropyl-1-methyl-4-oxo-1,4-dihydro-5H-pyrazolo-[3,4-d]pyridazin-5-yl)-N-(1-(4-(trifluoromethyl)phenyl)ethyl)acetamide], the Ki on human GPR139 receptor [1] is 204 nM. Besides, the EC50 on human GPR139 receptor [2] is 67.6 nM.

As to `C[C@H](NC(=O)Cn1ncc2c(c(C3CC3)nn2C)c1=O)c1ccc(OC(F)(F)F)cc1` [Example 125, (S)-2-(3-cyclopropyl-1-methyl-4-oxo-1,4-dihydro-5H-pyrazolo[3,4-d]pyridazin-5-yl)-N-(1-(4-(trifluoromethoxy)phenyl)ethyl)acetamide], the Ki on human GPR139 receptor [1] was 47.9 nM. Also, the EC50 on human GPR139 receptor [2] was 123 nM.

Turning to `Cc1nn(C2CC2)c2cnn(CC(=O)N[C@@H](C)c3ccc(F)cc3Cl)c(=O)c12` [Example 131, (S)—N-(1-(2-chloro-4-fluorophenyl)ethyl)-2-(1-cyclopropyl-3-methyl-4-oxo-1,4-dihydro-5H-pyrazolo[3,4-d]pyridazin-5-yl)acetamide], the Ki on human GPR139 receptor [1] was 42.7 nM. In addition, the EC50 at human GPR139 receptor [2] was 41.7 nM.

As to `Cc1nn(C2CC2)c2cnn(CC(=O)N[C@@H](C)c3cccc(F)c3)c(=O)c12` [Example 25, (S)-2-(1-cyclopropyl-3-methyl-4-oxo-1,4-dihydro-5H-pyrazolo[3,4-d]pyridazin-5-yl)-N-(1-(3-fluorophenyl)ethyl)acetamide], the Ki on human GPR139 receptor [1] was 617 nM. Further, on human GPR139 receptor [2], the EC50 is 23.4 nM.

`C[C@H](NC(=O)Cn1nc(C2CC2)c2cnn(-c3ccccc3)c2c1=O)c1ccc(OC(F)(F)F)cc1` [Example 45, (S)-2-(4-cyclopropyl-7-oxo-1-phenyl-1,7-dihydro-6H-pyrazolo[3,4-d]pyridazin-6-yl)-N-(1-(4-(trifluoromethoxy)phenyl)ethyl)acetamide]: at human GPR139 receptor [1], the Ki is 224 nM. For the same compound, at human GPR139 receptor [2], the EC50 was not below 10000 nM.

For the compound `Cc1ccc([C@H](C)NC(=O)Cn2nc(C(C)C)c3cnn(C(C)(C)C)c3c2=O)cc1` [Example 11, (S)-2-(1-(tert-butyl)-4-isopropyl-7-oxo-1,7-dihydro-6H-pyrazolo[3,4-d]pyridazin-6-yl)-N-(1-(p-tolyl)ethyl)acetamide], the Ki at human GPR139 receptor [1] is 107 nM. In addition, the EC50 on human GPR139 receptor [2] was 2750 nM.

In the case of `Cc1nn(C2CC2)c2c(=O)n(CC(=O)N[C@@H](C)c3ccc(C(F)(F)F)cn3)ncc12` [Example 58, (S)-2-(1-cyclopropyl-3-methyl-7-oxo-1,7-dihydro-6H-pyrazolo[3,4-d]pyridazin-6-yl)-N-(1-(5-(trifluoromethyl)pyridin-2-yl)ethyl)acetamide], the Ki at human GPR139 receptor [1] was 1350 nM. In addition, the EC50 at human GPR139 receptor [2] was 74.1 nM.

`Cc1ccc([C@H](C)NC(=O)Cn2ncc3c(C4CC4)nn(C)c3c2=O)c(F)c1` [Example 152, (S)-2-(3-cyclopropyl-1-methyl-7-oxo-1,7-dihydro-6H-pyrazolo[3,4-d]pyridazin-6-yl)-N-(1-(2-fluoro-4-methylphenyl)ethyl)acetamide]: at human GPR139 receptor [1], the Ki is 110 nM. Also, the EC50 at human GPR139 receptor [2] was 28.8 nM.

Regarding `Cc1nn(C2CC2)c2cnn(CC(=O)NC(C)c3ccc4c(c3)CCCO4)c(=O)c12` (centres unmarked) [Example 104, N-(1-(chroman-6-yl)ethyl)-2-(1-cyclopropyl-3-methyl-4-oxo-1,4-dihydro-5H-pyrazolo[3,4-d]pyridazin-5-yl)acetamide], at human GPR139 receptor [1], the Ki was 794 nM. For the same compound, the EC50 at human GPR139 receptor [2] was 61.7 nM.

Regarding `C[C@H](NC(=O)Cn1ncc2c(c(C(F)(F)F)nn2C)c1=O)c1ccc(C(F)(F)F)cc1` [Example 172, (S)-2-(1-methyl-4-oxo-3-(trifluoromethyl)-1,4-dihydro-5H-pyrazolo[3,4-d]pyridazin-5-yl)-N-(1-(4-(trifluoromethyl)phenyl)ethyl)acetamide], the Ki on human GPR139 receptor [1] was 178 nM. In addition, the EC50 at human GPR139 receptor [2] was 93.3 nM.

Take `Cc1nn(C2CC2)c2cnn(CC(=O)N[C@H](C)c3ccc(C(F)(F)F)cc3)c(=O)c12` [Example 160, (R)-2-(1-cyclopropyl-3-methyl-4-oxo-1,4-dihydro-5H-pyrazolo[3,4-d]pyridazin-5-yl)-N-(1-(4-(trifluoromethyl)phenyl)ethyl)acetamide]: at human GPR139 receptor [1], the Ki is 30200 nM. Moreover, the EC50 on human GPR139 receptor [2] was 295 nM.

In the case of `Cc1cc([C@H](C)NC(=O)Cn2ncc3c(c(C)nn3C3CC3)c2=O)ccc1F` [Example 134, (S)-2-(1-cyclopropyl-3-methyl-4-oxo-1,4-dihydro-5H-pyrazolo[3,4-d]pyridazin-5-yl)-N-(1-(4-fluoro-3-methylphenyl)ethyl)acetamide], the Ki on human GPR139 receptor [1] was 589 nM. Besides, at human GPR139 receptor [2], the EC50 was 24 nM.

In the case of `Cc1ccc([C@H](C)NC(=O)Cn2nc(C)c3c(c(C4CC4)nn3C)c2=O)c(F)c1` [Example 117, (S)-2-(3-cyclopropyl-1,7-dimethyl-4-oxo-1,4-dihydro-5H-pyrazolo[3,4-d]pyridazin-5-yl)-N-(1-(2-fluoro-4-methylphenyl)ethyl)acetamide], at human GPR139 receptor [1], the Ki was 2.09 nM. In addition, the EC50 on human GPR139 receptor [2] was 50.1 nM.

For the compound `Cc1ccc([C@H](C)NC(=O)Cn2ncc3c(C4CC4)nn(C)c3c2=O)cc1F` [Example 151, (S)-2-(3-cyclopropyl-1-methyl-7-oxo-1,7-dihydro-6H-pyrazolo[3,4-d]pyridazin-6-yl)-N-(1-(3-fluoro-4-methylphenyl)ethyl)acetamide], the Ki on human GPR139 receptor [1] was 60.3 nM. Also, the EC50 on human GPR139 receptor [2] was 20.4 nM.

As for `Cc1cc(C)c([C@H](C)NC(=O)Cn2ncc3c(c(C)cn3C3CC3)c2=O)c(C)c1` [Example 64, (S)-2-(1-cyclopropyl-3-methyl-4-oxo-1,4-dihydro-5H-pyrrolo[2,3-d]pyridazin-5-yl)-N-(1-mesitylethyl)acetamide], the Ki on human GPR139 receptor [1] was 2.09 nM. In addition, on human GPR139 receptor [2], the EC50 was 120 nM.

Turning to `Cc1ccc([C@H](C)NC(=O)Cn2ncc3c(cnn3C(C)C)c2=O)cc1` [Example 89, (S)-2-(1-isopropyl-4-oxo-1,4-dihydro-5H-pyrazolo[3,4-d]pyridazin-5-yl)-N-(1-(p-tolyl)ethyl)acetamide], the Ki at human GPR139 receptor [1] is 2190 nM. Also, on human GPR139 receptor [2], the EC50 is 44.7 nM.

For the compound `COc1cc(Cl)ccc1C[C@H](C)NC(=O)Cn1ncc2c(c(C)cn2C2CC2)c1=O` [Example 67, (S)—N-(1-(4-chloro-2-methoxyphenyl)propan-2-yl)-2-(1-cyclopropyl-3-methyl-4-oxo-1,4-dihydro-5H-pyrrolo[2,3-d]pyridazin-5-yl)acetamide], the Ki at human GPR139 receptor [1] is 3.89 nM. Also, at human GPR139 receptor [2], the EC50 was 85.1 nM.

For the compound `Cc1cc(C)c([C@H](C)NC(=O)Cn2nc(C)c3c(C)nn(C4CC4)c3c2=O)c(C)c1` [Example 70, (S)-2-(1-cyclopropyl-3,4-dimethyl-7-oxo-1,7-dihydro-6H-pyrazolo[3,4-d]pyridazin-6-yl)-N-(1-mesitylethyl)acetamide], the Ki at human GPR139 receptor [1] was 0.759 nM. Moreover, the EC50 at human GPR139 receptor [2] was 178 nM.

On to `Cc1ccc([C@H](C)NC(=O)Cn2nc(C(C)C)c3cnn(-c4ccccc4)c3c2=O)cc1` [Example 3, (S)-2-(4-isopropyl-7-oxo-1-phenyl-1,7-dihydro-6H-pyrazolo[3,4-d]pyridazin-6-yl)-N-(1-(p-tolyl)ethyl)acetamide], for which, at human GPR139 receptor [1], the Ki was 72.4 nM. The EC50 on human GPR139 receptor [2] is not below 10000 nM.

As to `Cc1ccc([C@H](C)NC(=O)Cn2ncc3ncn(C)c3c2=O)cc1` [Example 138, (S)-2-(3-methyl-4-oxo-3,4-dihydro-5H-imidazo[4,5-d]pyridazin-5-yl)-N-(1-(p-tolyl)ethyl)acetamide], the Ki at human GPR139 receptor [1] is 30200 nM. The EC50 at human GPR139 receptor [2] was 363 nM.

Regarding `Cc1ccc([C@H](C)NC(=O)Cn2ncc3c(cnn3C)c2=O)cc1` [Example 33, (S)-2-(1-methyl-4-oxo-1,4-dihydro-5H-pyrazolo[3,4-d]pyridazin-5-yl)-N-(1-(p-tolyl)ethyl)acetamide], the Ki at human GPR139 receptor [1] was 5250 nM. In addition, the EC50 on human GPR139 receptor [2] was 66.1 nM.

For the compound `Cc1ccc([C@H](C)NC(=O)Cn2ncc3c(C)nn(C(C)C)c3c2=O)cc1` [Example 23], the Ki on human GPR139 receptor [1] was 102 nM. Also, at human GPR139 receptor [2], the EC50 is 166 nM.

Turning to `COc1ccc([C@H](C)NC(=O)Cn2ncc3c(c(C)nn3C3CC3)c2=O)cc1C` [Example 31, (S)-2-(1-cyclopropyl-3-methyl-4-oxo-1,4-dihydro-5H-pyrazolo[3,4-d]pyridazin-5-yl)-N-(1-(4-methoxy-3-methylphenyl)ethyl)acetamide], the Ki at human GPR139 receptor [1] was 11700 nM. Moreover, the EC50 at human GPR139 receptor [2] was 57.5 nM.

`Cc1nn(CC(=O)N[C@@H](C)c2ccc(C(F)(F)F)cn2)c(=O)c2c1c(C)nn2C` [Example 102, (S)—N-(1-(5-(trifluoromethyl)pyridin-2-yl)ethyl)-2-(1,3,4-trimethyl-7-oxo-1,7-dihydro-6H-pyrazolo[3,4-d]pyridazin-6-yl)acetamide]: the Ki at human GPR139 receptor [1] is 15100 nM. Moreover, the EC50 at human GPR139 receptor [2] is 209 nM.

`COc1ccc([C@H](C)NC(=O)Cn2nc(C)c3c(c(C)nn3C)c2=O)cc1` [Example 123, (S)—N-(1-(4-methoxyphenyl)ethyl)-2-(1,3,7-trimethyl-4-oxo-1,4-dihydro-5H-pyrazolo[3,4-d]pyridazin-5-yl)acetamide]: on human GPR139 receptor [1], the Ki was 1450 nM. Further, the EC50 at human GPR139 receptor [2] is 2140 nM.
